Source: ChEMBL document CHEMBL1201862, “PubChem BioAssay data set” (2004)
Active and inactive are the calls of the source.

Legend:
[1] = molecular target: Glucose-6-phosphate 1-dehydrogenase (Homo sapiens, UniProt P11413); test: human G6PD enzyme inhibitors, dose response, selectivity assay for P. falciparum G6PD inhibitor project, biochemical, fluorescence (AID 504792); format: functional
[2] = molecular target: Genome polyprotein (dengue virus type 2, UniProt P29990); test: Dengue-2 NS5 methyltransferase inhibitors, primary screen, biochemical, confirmation dose response (AID 588689); format: functional
[3] = molecular target: T1, Cytochrome P450 3A4 (Homo sapiens, UniProt P08684);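 also: CYP3A4 tested as one member of a cytochrome P450 panel screen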
[4] = molecular target: T2, Cytochrome P450 2C9 (Homo sapiens, UniProt P11712)
[5] = molecular target: Cytochrome P450 2C19 (Homo sapiens, UniProt P33261); test: Cytochrome panel assay with activity outcomes. Panel member name: p450-cyp2c19 Compounds with AC50 equal or less than 10 uM are considered active; format: functional
[6] = molecular target: T3, Cytochrome P450 1A2 (Homo sapiens, UniProt P05177);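 also: PubChem cytochrome P450 panel assay, CYP1A2 panel member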
T3 sequence (P05177 whole entry): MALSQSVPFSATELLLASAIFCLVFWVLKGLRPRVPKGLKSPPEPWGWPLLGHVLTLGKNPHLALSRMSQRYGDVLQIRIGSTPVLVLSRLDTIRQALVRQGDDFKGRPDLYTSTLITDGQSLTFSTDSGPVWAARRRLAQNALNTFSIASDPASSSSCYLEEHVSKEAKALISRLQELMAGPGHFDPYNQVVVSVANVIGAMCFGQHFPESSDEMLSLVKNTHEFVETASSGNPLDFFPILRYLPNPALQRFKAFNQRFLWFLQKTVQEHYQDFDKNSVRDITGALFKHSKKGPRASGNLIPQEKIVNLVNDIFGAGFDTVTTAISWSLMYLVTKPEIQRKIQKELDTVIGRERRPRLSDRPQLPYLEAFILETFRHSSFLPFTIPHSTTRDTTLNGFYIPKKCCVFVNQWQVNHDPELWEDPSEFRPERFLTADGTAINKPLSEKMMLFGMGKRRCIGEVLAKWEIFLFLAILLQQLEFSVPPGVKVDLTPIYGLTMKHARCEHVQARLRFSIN

[7] = molecular target: T2, Cytochrome P450 2C9; remark: listed apart in the source
[8] = molecular target: T1, Cytochrome P450 3A4; remark: listed apart in the source
[9] = molecular target: Cytochrome P450 2D6 (Homo sapiens, UniProt P10635);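 also: CYP2D6 member of a cytochrome P450 panel assay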
[10] = molecular target: SUMO-activating enzyme (Homo sapiens, UniProt Q9UBT2); test: SUMOylation inhibitor hit validation, confirmation, SUMOylation inhibitor project, biochemical, AlphaScreen (AID 2018); format: functional
[11] = molecular target: T4, Ubiquitin-conjugating enzyme E2 N (Homo sapiens, UniProt P61088); format: functional
T4 sequence (P61088 whole entry): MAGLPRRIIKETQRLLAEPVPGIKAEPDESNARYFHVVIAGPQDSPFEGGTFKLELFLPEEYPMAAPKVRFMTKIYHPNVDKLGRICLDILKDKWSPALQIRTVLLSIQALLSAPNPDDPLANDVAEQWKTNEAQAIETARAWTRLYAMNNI

[12] = molecular target: T4, Ubiquitin-conjugating enzyme E2 N; format: functional; remark: listed apart in the source
[13] = molecular target: T5, Bcl-2-related protein A1 (Mus musculus, UniProt Q07440); format: functional;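 also: confirmatory dose–response counterscreen on Bfl-1, used to check hits from a UBC13 polyubiquitin inhibitor campaign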
T5 sequence (Q07440 whole entry): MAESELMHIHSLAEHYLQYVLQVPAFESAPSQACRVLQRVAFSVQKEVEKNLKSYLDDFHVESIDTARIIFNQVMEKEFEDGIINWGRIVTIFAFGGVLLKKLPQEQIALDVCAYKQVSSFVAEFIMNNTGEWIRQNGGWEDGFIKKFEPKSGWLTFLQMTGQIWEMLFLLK

[14] = molecular target: T6, Heat shock factor protein 1 (Mus musculus, UniProt P38532); test: inhibition of MG132-induced HSE-luciferase signal, confirmation, cell-based, NIH3T3, luminescence, dose retest (AID 2382); format: functional;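 also: NIH3T3 fibroblasts with HSF1-driven luciferase reporter stressed by proteasome inhibitor MG132; luminescence from HSF1-driven luciferase expression after 8 hours of MG132 stress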
T6 sequence (P38532 whole entry): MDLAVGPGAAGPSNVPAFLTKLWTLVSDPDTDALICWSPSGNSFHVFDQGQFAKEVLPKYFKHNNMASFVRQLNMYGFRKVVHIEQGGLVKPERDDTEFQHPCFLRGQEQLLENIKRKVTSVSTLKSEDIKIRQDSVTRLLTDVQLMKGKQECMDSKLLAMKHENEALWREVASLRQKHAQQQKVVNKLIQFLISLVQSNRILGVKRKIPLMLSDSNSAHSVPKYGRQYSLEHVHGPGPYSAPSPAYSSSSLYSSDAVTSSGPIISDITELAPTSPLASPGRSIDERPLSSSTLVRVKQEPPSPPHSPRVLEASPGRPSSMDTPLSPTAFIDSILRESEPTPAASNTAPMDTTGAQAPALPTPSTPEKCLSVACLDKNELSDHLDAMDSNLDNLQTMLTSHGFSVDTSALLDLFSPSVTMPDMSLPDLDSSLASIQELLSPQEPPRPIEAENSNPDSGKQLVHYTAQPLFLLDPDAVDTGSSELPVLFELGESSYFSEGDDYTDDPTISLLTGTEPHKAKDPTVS

[15] = cytotoxicity in HEK-293T cells, dose response, cytotoxicity control for BCR NF-kB inhibitor project, luminescence, B-cell screen hits (AID 489021); format: functional, cell-based;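 also: HEK-293T cells carrying an NF-kB luciferase reporter; cells exposed to compound for about 14 hours before viability readout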
[16] = molecular target: Nonstructural protein 1 (Influenza A virus, UniProt Q194T2); format: functional, Influenza A virus (A/California/07/2009(H1N1))
[17] = molecular target: T7, Short transient receptor potential channel 4 (Mus musculus, UniProt Q9QUQ5); test: mouse TRPC4 channel activators, dose response, cell-based, HEK293 TRPC4/mu-opioid, Fluo-4 calcium (AID 434937); format: functional
T7 sequence (Q9QUQ5 whole entry): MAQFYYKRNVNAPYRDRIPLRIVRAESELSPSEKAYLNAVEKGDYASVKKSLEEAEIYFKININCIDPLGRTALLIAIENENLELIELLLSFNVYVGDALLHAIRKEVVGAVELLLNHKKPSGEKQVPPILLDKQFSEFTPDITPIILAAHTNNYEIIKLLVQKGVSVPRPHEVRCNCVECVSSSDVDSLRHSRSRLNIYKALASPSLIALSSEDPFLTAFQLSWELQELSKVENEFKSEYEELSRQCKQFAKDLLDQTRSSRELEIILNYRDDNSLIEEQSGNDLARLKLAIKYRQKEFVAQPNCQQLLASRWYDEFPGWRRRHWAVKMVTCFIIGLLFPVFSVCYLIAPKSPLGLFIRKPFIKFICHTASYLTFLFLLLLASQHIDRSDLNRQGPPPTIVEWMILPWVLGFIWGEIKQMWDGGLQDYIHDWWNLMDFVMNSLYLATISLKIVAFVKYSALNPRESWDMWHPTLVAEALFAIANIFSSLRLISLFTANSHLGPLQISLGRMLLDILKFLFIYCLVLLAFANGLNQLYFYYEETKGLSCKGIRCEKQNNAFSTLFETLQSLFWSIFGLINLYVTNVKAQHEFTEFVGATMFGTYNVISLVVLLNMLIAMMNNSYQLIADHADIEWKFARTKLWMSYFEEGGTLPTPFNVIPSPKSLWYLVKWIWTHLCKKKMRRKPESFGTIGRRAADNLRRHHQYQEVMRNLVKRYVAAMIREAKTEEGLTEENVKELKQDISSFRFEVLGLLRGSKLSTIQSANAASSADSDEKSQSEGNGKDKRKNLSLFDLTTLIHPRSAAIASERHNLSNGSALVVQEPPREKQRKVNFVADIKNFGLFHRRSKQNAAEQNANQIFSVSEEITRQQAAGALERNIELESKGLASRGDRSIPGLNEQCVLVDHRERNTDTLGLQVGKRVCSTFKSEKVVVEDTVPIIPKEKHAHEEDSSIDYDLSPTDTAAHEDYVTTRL

[18] = molecular target: T8, Mannose-6-phosphate isomerase (Homo sapiens, UniProt P34949); test: human PMI inhibitors, high substrate, primary screen, biochemical, fluorescence intensity, high mannose 6-phosphate (AID 1220)
T8 sequence (P34949 whole entry): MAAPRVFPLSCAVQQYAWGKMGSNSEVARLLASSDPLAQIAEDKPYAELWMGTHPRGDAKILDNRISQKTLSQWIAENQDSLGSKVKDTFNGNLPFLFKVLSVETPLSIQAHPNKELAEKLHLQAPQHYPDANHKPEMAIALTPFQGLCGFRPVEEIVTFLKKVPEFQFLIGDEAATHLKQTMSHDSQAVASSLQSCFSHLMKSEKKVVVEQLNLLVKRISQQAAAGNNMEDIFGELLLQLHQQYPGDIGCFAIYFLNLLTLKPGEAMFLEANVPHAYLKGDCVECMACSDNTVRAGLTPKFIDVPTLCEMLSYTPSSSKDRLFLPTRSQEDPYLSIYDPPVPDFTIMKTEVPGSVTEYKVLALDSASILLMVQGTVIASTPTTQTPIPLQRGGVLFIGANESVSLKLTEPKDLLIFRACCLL

[19] = Shn3 3'UTR reporter inhibitors, dose response, cell-based, Clone20 osteoblasts, firefly luciferase, cherry-picked (AID 624132); format: functional;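 also: firefly luciferase luminescence from reporter carrying the Shn3 3'UTR in osteoblasts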
[20] = control 3'UTR Renilla luciferase suppression, dose response, counter-screen for Shn3 inhibitor project, cell-based, Clone20-Shn3RL, cherry-picked (AID 624133); format: functional
[21] = HepG2 cell cytotoxicity, dose response, cytotoxicity control for Shn3 inhibitor project, CellTiter-Glo, cherry-picked (AID 624134); format: functional, cell-based

Chain of Glucose-6-phosphate 1-dehydrogenase (P11413 whole entry): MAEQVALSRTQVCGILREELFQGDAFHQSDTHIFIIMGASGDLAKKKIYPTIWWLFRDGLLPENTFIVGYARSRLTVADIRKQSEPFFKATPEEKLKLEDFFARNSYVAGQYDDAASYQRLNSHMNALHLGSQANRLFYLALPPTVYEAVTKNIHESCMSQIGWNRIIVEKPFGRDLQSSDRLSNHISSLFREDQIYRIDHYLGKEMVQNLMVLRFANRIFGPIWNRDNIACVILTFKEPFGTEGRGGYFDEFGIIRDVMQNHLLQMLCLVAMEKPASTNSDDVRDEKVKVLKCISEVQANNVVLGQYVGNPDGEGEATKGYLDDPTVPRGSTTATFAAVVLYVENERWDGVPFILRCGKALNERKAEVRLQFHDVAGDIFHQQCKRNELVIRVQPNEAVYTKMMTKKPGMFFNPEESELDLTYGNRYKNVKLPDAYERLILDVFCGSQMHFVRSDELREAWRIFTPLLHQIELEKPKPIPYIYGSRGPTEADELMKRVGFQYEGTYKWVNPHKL
Chain of Nonstructural protein 1 (Q194T2 whole entry): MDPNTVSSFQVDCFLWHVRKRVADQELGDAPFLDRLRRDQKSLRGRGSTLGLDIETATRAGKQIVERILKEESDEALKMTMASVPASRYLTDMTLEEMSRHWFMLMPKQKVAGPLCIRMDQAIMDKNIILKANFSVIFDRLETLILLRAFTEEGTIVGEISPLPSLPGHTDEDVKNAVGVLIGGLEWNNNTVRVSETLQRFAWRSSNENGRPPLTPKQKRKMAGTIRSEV
T1 sequence (P08684 whole entry): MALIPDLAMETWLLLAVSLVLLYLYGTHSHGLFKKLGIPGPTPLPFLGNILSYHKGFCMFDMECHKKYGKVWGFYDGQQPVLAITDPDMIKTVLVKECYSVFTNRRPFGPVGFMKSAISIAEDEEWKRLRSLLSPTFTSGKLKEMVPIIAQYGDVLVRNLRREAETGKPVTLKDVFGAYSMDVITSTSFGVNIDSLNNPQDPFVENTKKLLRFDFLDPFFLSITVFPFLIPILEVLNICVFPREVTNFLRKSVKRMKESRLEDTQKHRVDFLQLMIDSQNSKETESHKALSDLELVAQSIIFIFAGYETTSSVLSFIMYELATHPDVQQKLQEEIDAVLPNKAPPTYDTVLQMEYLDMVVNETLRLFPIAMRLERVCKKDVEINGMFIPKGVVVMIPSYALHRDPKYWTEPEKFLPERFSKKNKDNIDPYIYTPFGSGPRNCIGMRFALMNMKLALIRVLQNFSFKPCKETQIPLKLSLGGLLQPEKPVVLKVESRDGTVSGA
Chain of Cytochrome P450 2C19 (P33261 whole entry): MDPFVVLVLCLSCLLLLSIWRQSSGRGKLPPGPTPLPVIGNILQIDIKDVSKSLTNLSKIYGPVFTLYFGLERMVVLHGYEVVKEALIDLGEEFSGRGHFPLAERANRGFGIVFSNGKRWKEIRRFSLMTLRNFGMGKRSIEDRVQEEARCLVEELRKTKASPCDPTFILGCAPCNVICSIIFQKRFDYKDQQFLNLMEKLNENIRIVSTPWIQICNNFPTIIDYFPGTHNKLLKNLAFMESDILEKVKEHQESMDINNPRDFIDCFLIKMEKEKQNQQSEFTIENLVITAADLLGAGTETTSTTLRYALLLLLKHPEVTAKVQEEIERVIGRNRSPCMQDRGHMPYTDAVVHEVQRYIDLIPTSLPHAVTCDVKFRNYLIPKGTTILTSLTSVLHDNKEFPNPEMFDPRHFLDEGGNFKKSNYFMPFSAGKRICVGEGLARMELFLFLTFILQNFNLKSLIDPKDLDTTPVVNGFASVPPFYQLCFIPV
T2 sequence (P11712 whole entry): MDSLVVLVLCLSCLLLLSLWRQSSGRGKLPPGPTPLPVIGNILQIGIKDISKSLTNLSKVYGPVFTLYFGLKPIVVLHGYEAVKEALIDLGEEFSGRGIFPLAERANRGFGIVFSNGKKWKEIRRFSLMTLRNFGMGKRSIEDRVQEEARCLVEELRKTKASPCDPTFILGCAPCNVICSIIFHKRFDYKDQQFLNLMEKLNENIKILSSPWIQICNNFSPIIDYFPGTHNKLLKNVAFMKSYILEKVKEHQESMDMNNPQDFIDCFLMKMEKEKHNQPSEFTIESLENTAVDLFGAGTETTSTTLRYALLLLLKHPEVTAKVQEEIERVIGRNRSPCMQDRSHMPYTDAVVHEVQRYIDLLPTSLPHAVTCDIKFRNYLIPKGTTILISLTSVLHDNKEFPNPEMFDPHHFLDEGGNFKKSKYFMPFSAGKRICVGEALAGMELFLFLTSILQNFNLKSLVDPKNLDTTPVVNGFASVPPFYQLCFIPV
Chain of SUMO-activating enzyme (Q9UBE0 whole entry): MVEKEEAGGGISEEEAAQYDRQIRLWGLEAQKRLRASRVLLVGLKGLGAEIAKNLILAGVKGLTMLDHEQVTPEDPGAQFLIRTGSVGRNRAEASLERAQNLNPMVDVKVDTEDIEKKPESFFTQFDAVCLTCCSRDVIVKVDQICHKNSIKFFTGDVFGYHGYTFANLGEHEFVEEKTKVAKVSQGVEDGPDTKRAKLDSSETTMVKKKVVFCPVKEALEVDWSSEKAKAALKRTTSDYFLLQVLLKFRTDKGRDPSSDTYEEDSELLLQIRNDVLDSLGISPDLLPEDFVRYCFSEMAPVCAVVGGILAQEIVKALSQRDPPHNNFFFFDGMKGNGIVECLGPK
Chain of SUMO-activating enzyme (Q9UBT2 whole entry): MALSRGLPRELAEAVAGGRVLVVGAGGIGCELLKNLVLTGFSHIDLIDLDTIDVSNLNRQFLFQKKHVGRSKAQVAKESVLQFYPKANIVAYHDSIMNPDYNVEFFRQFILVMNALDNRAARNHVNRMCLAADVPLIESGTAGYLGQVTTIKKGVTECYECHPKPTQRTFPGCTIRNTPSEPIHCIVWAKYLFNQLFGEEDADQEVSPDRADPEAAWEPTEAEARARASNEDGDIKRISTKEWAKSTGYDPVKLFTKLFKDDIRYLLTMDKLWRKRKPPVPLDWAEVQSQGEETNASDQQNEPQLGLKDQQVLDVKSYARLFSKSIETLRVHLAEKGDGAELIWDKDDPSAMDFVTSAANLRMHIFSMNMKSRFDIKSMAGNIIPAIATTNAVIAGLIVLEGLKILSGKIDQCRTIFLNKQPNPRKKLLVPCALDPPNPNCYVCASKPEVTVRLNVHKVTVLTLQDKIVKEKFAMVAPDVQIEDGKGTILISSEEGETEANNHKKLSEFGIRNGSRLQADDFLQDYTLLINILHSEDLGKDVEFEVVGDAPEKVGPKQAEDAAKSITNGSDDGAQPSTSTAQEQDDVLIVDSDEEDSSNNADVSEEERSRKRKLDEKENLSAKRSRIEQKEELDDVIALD
Chain of Cytochrome P450 2D6 (P10635 whole entry): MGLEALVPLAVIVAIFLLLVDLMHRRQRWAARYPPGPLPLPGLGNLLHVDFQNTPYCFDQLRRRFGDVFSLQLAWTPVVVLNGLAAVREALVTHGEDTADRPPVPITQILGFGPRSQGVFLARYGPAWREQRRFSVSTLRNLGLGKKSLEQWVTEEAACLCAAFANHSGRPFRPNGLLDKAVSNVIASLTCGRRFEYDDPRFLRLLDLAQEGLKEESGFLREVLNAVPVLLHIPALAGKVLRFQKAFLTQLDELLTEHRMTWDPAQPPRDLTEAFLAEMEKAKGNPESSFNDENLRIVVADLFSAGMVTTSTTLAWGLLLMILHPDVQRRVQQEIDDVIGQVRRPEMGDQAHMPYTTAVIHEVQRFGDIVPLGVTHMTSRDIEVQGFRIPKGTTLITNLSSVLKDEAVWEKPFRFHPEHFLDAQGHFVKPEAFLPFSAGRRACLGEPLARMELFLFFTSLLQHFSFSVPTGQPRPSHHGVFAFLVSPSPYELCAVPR
Chain of Genome polyprotein (P29990 2492-3391 limits assumed): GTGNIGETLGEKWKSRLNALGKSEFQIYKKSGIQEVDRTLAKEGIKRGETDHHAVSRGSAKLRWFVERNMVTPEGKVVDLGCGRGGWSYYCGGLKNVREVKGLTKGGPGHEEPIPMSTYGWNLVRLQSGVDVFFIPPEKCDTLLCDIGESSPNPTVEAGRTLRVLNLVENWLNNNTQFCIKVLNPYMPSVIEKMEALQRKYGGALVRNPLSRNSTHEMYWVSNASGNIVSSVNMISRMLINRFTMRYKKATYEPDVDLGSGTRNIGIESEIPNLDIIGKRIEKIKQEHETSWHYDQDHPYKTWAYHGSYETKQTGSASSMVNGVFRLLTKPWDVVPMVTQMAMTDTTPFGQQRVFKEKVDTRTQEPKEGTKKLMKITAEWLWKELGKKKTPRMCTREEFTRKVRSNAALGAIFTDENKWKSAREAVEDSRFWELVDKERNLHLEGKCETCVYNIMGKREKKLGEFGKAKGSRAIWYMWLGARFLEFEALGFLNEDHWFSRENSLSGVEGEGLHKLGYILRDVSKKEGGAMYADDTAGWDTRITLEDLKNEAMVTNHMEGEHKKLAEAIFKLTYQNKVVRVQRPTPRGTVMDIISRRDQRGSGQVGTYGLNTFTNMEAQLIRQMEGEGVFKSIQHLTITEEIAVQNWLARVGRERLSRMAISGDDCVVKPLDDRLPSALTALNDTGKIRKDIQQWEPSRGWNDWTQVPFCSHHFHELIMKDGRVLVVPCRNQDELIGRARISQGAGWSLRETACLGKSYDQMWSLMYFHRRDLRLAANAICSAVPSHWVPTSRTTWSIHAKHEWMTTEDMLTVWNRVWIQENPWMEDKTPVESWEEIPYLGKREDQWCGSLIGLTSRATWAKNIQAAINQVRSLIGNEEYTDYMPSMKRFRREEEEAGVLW

With `CN1CC[C@@]2(C)c3cc(O)ccc3N(C)[C@@H]12` the IC50 [1] was 42.6 µM (inactive) and the IC50 [2] was 22.4 µM (active).
With `O=C(c1cnccn1)N1CCC2(CC1)CCN(c1ccccc1)CC2` the AC50 [3] was “inconclusive”.
For `CCCCCCCCCCC/C=C\C(C)(C)/C=C\CCCC(=O)O`, the AC50 [3] was “inconclusive”, the AC50 [4] was 15800 nM (inconclusive) and the AC50 ([5]; read-out: AC50) was 25.1 µM (inconclusive).
In the case of `CN1CCN(c2ncc3nc(-c4ccc(F)cc4)c(=O)n(Cc4cccs4)c3n2)CC1`, the AC50 [3] is reported as “inconclusive”, the AC50 [6] is reported as 25.1 µM (inconclusive) and the AC50 [4] is reported as 12.6 nM (inconclusive). For the same compound, the AC50 ([5]; read-out: AC50) was 31.6 µM (inconclusive).
In the case of `CNc1oc(-c2cccs2)nc1C#N`, the AC50 [7] is reported as “inconclusive” and the AC50 [8] is reported as 28.2 µM (inconclusive).
For `CSc1ccc(S(=O)(=O)Nc2ccc3c4c(cccc24)CC3)cc1`, the AC50 [7] was “inconclusive” and the AC50 [9] was 14.1 µM (inconclusive).
With `Cc1ccc(NN=C2C(=O)NC(=O)NC2=O)c([N+](=O)[O-])c1` the AC50 [6] was 17.8 µM (inconclusive), the AC50 [7] was “inconclusive” and the AC50 [5] was “inconclusive”.
For `NC(=O)CC(NC(=O)Cc1cccc2ccccc12)c1ccc(NC2CCCCCC2)c([N+](=O)[O-])c1` (configuration not stated), the IC50 [10] was > 100 µM (inactive).
With `CCc1cccc2c(C(=O)C(NC(C)CC)c3ccccc3)c[nH]c12` (configuration not stated) the IC50 [11] was 16.6 µM (active), the IC50 [12] was 9.25 µM (active) and the IC50 [13] was > 20 µM (inactive).
With `COc1cccc(OCC(=O)NN=C2c3ccccc3-c3ccccc32)c1` the AC50 [7] was “inconclusive”.
With `Cc1nn(CC(=O)NCCCN2CCC(Cc3ccccc3)CC2)c(=O)c2cc(-c3ccccc3)nn12` the IC50 [11] was 11.4 µM (active), the EC50 [14] was > 195 µM (not active) and the IC50 [12] was 4.59 µM (active). For the same compound, the IC50 [13] was > 20 µM (inactive).
With `CC1(OC(=O)C2CCCC2)C(=O)C=C2C=C(c3ccsc3)N(CCc3c[nH]c4ccccc34)C=C2C1=O` (configuration not stated) the IC50 [1] was 49.6 µM (inactive).
With `O=C(Nc1ccc(C(=O)NCCCN2CCN(c3ccc(F)cc3)CC2)cc1)C1=CSCCO1` the IC50 [11] was 12.5 µM (active), the IC50 [12] was 10.3 µM (active) and the IC50 [13] was > 20 µM (inactive).
With `Cc1ccc(C(=O)N2CCCC(c3ccc(Cl)cc3)=N2)cc1` the IC50 [15] was > 80 µM (inactive).
In the case of `COc1ccc(C(CCNCc2ccc(N(C)C)cc2)c2ccccc2OC)cc1` (configuration not stated), the IC50 [16] is reported as 20.2 µM (active) and the EC50 [17] is reported as 10.6 µM (active).
With `NNC(=O)CN1C(c2ccccc2Br)=Nc2ccc(Br)cc2C1c1ccccc1` (configuration not stated) the IC50 [1] was 15.3 µM (active).
For `CCCCn1c(SCC(=O)NC(C)(C)C)nnc1-c1ccco1`, the AC50 [3] was “inconclusive”, the AC50 [6] was 0.316 µM (inconclusive) and the AC50 [9] was 12.6 µM (inconclusive). The AC50 [4] was 39.8 nM (inconclusive).
For `O=C(Nc1nnc(-c2ccccc2SCc2ccccc2)s1)Nc1ccccc1F`, the IC50 [10] was 46.5 µM (active).
For `CCCS(=O)(=O)c1ncc(Cl)c(C(=O)Nc2ccc(S(=O)(=O)Nc3ncccn3)cc2)n1`, the IC50 [11] was 14 µM (active), the IC50 [12] was > 20 µM (inactive) and the IC50 [13] was > 20 µM (inactive).
With `Cc1cccc(Oc2coc3cc(OC(=O)c4cccs4)ccc3c2=O)c1` the AC50 [6] was 14.1 µM (inconclusive) and the AC50 [7] was “inconclusive”.
With `CCN(CC)c1ccc(NC(=O)c2ccccc2Br)cc1S(=O)(=O)Nc1ccccc1OC` the IC50 [1] was > 80 µM (inactive) and the IC50 [18] was 43.7 µM (active).
With `NNc1nccc(Nc2ccccc2C(=O)O)n1` the IC50 [16] was 8.21 µM (active).
In the case of `Cc1no[n+]([O-])c1COc1cccc(/C=N/Nc2nncn2N)c1`, the IC50 [1] is reported as 58.7 µM (inactive).
In the case of `Oc1c(CN2CCCCC2)ccc2cccnc12`, the AC50 [19] is reported as 2.11 µM (active), the IC50 [16] is reported as 2.05 µM (active) and the AC50 [20] is reported as 3.77 µM (active). For the same compound, the AC50 [21] was 52.3 µM (active).
